According to patent US20090053378A1, “Sweetener Compositions Having Enhanced Sweetness and Improved Temporal and/or Flavor Profiles” (THE COCA-COLA COMPANY, priority 2007, published 2009):

How the values were obtained:
[1] = Sweetness enhancement tasting of 2-hydroxybenzoic acid derivatives in sucrose solution; format: in vivo; parameters: key: NSE: No Significant Effect; conditions: 6% sucrose, roughly neutral pH; 6-10 scale (6, 8, 10% sucrose references)
Method: (§1) The hydroxybenzoic acid derivatives were tasted by themselves in water at a concentration of 3 mM prior to tasting with sucrose, glucose, or fructose to determine enhancement activities. After it was determined that the hydroxybenzoic acid derivatives themselves would contribute no sweetness, they were added to solutions with; 5% fructose, 9% glucose and 6% sucrose. These solutions were adjusted to roughly neutral pH using dilute NaOH solution. The sweetness of the fructose, glucose, and sucrose solutions were evaluated both without and with the hydroxybenzoic acid derivatives using independent sweetness intensity scales for sucrose, fructose, and glucose which were scaled according to references provided for each sweetener, Thus, for sucrose, sweetness references provided were 6, 8, and 10% sucrose and the sweetness intensities of unknown samples were scaled on this 6-10 scale. For fructose, 5, 7.5, and 9% fructose references were provided and the sweetness intensities of unknown samples were scaled on this 5-9 scale. For glucose, 9, 10.5, and 12% glucose references were provided and the sweetness intensities of unknown samples were scaled on this 9-12 scale.

[2] = Sweetness enhancement tasting of 2-hydroxybenzoic acid derivatives in fructose solution; format: in vivo; parameters: key: NSE: No Significant Effect; conditions: 5% fructose, roughly neutral pH; 5-9 scale (5, 7.5, 9% fructose references)
Method: as §1

[3] = Sweetness enhancement tasting of 2-hydroxybenzoic acid derivatives in glucose solution; format: in vivo; parameters: key: NSE: No Significant Effect; conditions: 9% glucose, roughly neutral pH; 9-12 scale (9, 10.5, 12% glucose references)
Method: as §1

[4] = Rate of dissolution of rebaudioside A forms in water; format: physicochemical

COc1cccc(C(=O)O)c1O [compound 1]
Sucrose sweetness rating, without => with the hydroxybenzoic acid derivative [1]: NSE | Fructose sweetness rating, without => with the hydroxybenzoic acid derivative [2]: NSE | Glucose sweetness rating, without => with the hydroxybenzoic acid derivative [3]: NSE

COc1ccc(C(=O)O)c(O)c1 [compound 2]
Sucrose sweetness rating, without => with the hydroxybenzoic acid derivative [1]: NSE | Fructose sweetness rating, without => with the hydroxybenzoic acid derivative [2]: NSE | Glucose sweetness rating, without => with the hydroxybenzoic acid derivative [3]: NSE

COc1ccc(O)c(C(=O)O)c1 [compound 3]
Sucrose sweetness rating, without => with the hydroxybenzoic acid derivative [1]: NSE | Fructose sweetness rating, without => with the hydroxybenzoic acid derivative [2]: NSE | Glucose sweetness rating, without => with the hydroxybenzoic acid derivative [3]: NSE

COc1cccc(O)c1C(=O)O [compound 4]
Sucrose sweetness rating, without => with the hydroxybenzoic acid derivative [1]: NSE | Fructose sweetness rating, without => with the hydroxybenzoic acid derivative [2]: NSE | Glucose sweetness rating, without => with the hydroxybenzoic acid derivative [3]: NSE

O=C(O)c1c(O)cccc1O [compound 8]
Sucrose sweetness rating, without => with the hydroxybenzoic acid derivative [1]: NSE

Cc1ccc(C(=O)O)c(O)c1 [compound 11]
Sucrose sweetness rating, without => with the hydroxybenzoic acid derivative [1]: NSE | Fructose sweetness rating, without => with the hydroxybenzoic acid derivative [2]: NSE | Glucose sweetness rating, without => with the hydroxybenzoic acid derivative [3]: NSE

Cc1ccc(O)c(C(=O)O)c1 [compound 12]
Sucrose sweetness rating, without => with the hydroxybenzoic acid derivative [1]: NSE | Fructose sweetness rating, without => with the hydroxybenzoic acid derivative [2]: NSE | Glucose sweetness rating, without => with the hydroxybenzoic acid derivative [3]: NSE

CCOc1ccc(C(=O)O)c(O)c1 [compound 14]
Sucrose sweetness rating, without => with the hydroxybenzoic acid derivative [1]: NSE | Fructose sweetness rating, without => with the hydroxybenzoic acid derivative [2]: NSE | Glucose sweetness rating, without => with the hydroxybenzoic acid derivative [3]: NSE

O=C(O)c1cccc([N+](=O)[O-])c1O [compound 18]
Sucrose sweetness rating, without => with the hydroxybenzoic acid derivative [1]: NSE | Fructose sweetness rating, without => with the hydroxybenzoic acid derivative [2]: NSE | Glucose sweetness rating, without => with the hydroxybenzoic acid derivative [3]: NSE

O=C(O)c1cc([N+](=O)[O-])ccc1O [compound 20]
Sucrose sweetness rating, without => with the hydroxybenzoic acid derivative [1]: NSE | Fructose sweetness rating, without => with the hydroxybenzoic acid derivative [2]: NSE

O=C(O)c1cc(F)ccc1O [compound 23]
Sucrose sweetness rating, without => with the hydroxybenzoic acid derivative [1]: NSE | Fructose sweetness rating, without => with the hydroxybenzoic acid derivative [2]: NSE | Glucose sweetness rating, without => with the hydroxybenzoic acid derivative [3]: NSE

O=C(O)c1c(O)cccc1F [compound 24]
Sucrose sweetness rating, without => with the hydroxybenzoic acid derivative [1]: NSE | Fructose sweetness rating, without => with the hydroxybenzoic acid derivative [2]: NSE | Glucose sweetness rating, without => with the hydroxybenzoic acid derivative [3]: NSE

Cc1c(O)ccc(C(=O)O)c1O [compound 25]
Sucrose sweetness rating, without => with the hydroxybenzoic acid derivative [1]: NSE | Fructose sweetness rating, without => with the hydroxybenzoic acid derivative [2]: NSE | Glucose sweetness rating, without => with the hydroxybenzoic acid derivative [3]: NSE

O=C(O)c1ccc(O)c(O)c1O [compound 26]
Sucrose sweetness rating, without => with the hydroxybenzoic acid derivative [1]: NSE | Fructose sweetness rating, without => with the hydroxybenzoic acid derivative [2]: NSE | Glucose sweetness rating, without => with the hydroxybenzoic acid derivative [3]: NSE

Nc1cc(C(=O)O)c(O)c(S(=O)(=O)O)c1 [compound 27]
Sucrose sweetness rating, without => with the hydroxybenzoic acid derivative [1]: NSE | Fructose sweetness rating, without => with the hydroxybenzoic acid derivative [2]: NSE | Glucose sweetness rating, without => with the hydroxybenzoic acid derivative [3]: NSE

Nc1cccc(C(=O)O)c1O [compound 28]
Sucrose sweetness rating, without => with the hydroxybenzoic acid derivative [1]: NSE | Fructose sweetness rating, without => with the hydroxybenzoic acid derivative [2]: NSE | Glucose sweetness rating, without => with the hydroxybenzoic acid derivative [3]: NSE

Nc1ccc(C(=O)O)c(O)c1 [compound 29]
Fructose sweetness rating, without => with the hydroxybenzoic acid derivative [2]: NSE

Nc1ccc(O)c(C(=O)O)c1 [compound 30]
Sucrose sweetness rating, without => with the hydroxybenzoic acid derivative [1]: NSE | Fructose sweetness rating, without => with the hydroxybenzoic acid derivative [2]: NSE | Glucose sweetness rating, without => with the hydroxybenzoic acid derivative [3]: NSE

Cc1cc(C)c(O)c(C(=O)O)c1 [compound 31]
Sucrose sweetness rating, without => with the hydroxybenzoic acid derivative [1]: NSE | Fructose sweetness rating, without => with the hydroxybenzoic acid derivative [2]: NSE | Glucose sweetness rating, without => with the hydroxybenzoic acid derivative [3]: NSE

O=Cc1ccc(O)c(C(=O)O)c1 [compound 32]
Sucrose sweetness rating, without => with the hydroxybenzoic acid derivative [1]: NSE | Fructose sweetness rating, without => with the hydroxybenzoic acid derivative [2]: NSE | Glucose sweetness rating, without => with the hydroxybenzoic acid derivative [3]: NSE

O=C(O)c1ccc(O)c(C(=O)O)c1 [compound 33]
Sucrose sweetness rating, without => with the hydroxybenzoic acid derivative [1]: NSE | Fructose sweetness rating, without => with the hydroxybenzoic acid derivative [2]: NSE | Glucose sweetness rating, without => with the hydroxybenzoic acid derivative [3]: NSE

CCCOc1ccc(C(=O)O)c(O)c1 [compound 34]
Sucrose sweetness rating, without => with the hydroxybenzoic acid derivative [1]: NSE | Fructose sweetness rating, without => with the hydroxybenzoic acid derivative [2]: NSE | Glucose sweetness rating, without => with the hydroxybenzoic acid derivative [3]: NSE

O=C(O)c1ccc(OCc2ccccc2)cc1O [compound 35]
Sucrose sweetness rating, without => with the hydroxybenzoic acid derivative [1]: NSE | Fructose sweetness rating, without => with the hydroxybenzoic acid derivative [2]: NSE | Glucose sweetness rating, without => with the hydroxybenzoic acid derivative [3]: NSE

O=C(O)c1ccc(OCCCc2ccccc2)cc1O [compound 36]
Sucrose sweetness rating, without => with the hydroxybenzoic acid derivative [1]: NSE | Fructose sweetness rating, without => with the hydroxybenzoic acid derivative [2]: NSE | Glucose sweetness rating, without => with the hydroxybenzoic acid derivative [3]: NSE

COC(=O)COc1ccc(C(=O)O)c(O)c1 [compound 37]
Sucrose sweetness rating, without => with the hydroxybenzoic acid derivative [1]: NSE | Fructose sweetness rating, without => with the hydroxybenzoic acid derivative [2]: NSE | Glucose sweetness rating, without => with the hydroxybenzoic acid derivative [3]: NSE

O=C(O)COc1ccc(C(=O)O)c(O)c1 [compound 38]
Sucrose sweetness rating, without => with the hydroxybenzoic acid derivative [1]: NSE | Fructose sweetness rating, without => with the hydroxybenzoic acid derivative [2]: NSE | Glucose sweetness rating, without => with the hydroxybenzoic acid derivative [3]: NSE

O=C(O)c1ccc(OCCO)cc1O [compound 39]
Sucrose sweetness rating, without => with the hydroxybenzoic acid derivative [1]: NSE | Fructose sweetness rating, without => with the hydroxybenzoic acid derivative [2]: NSE | Glucose sweetness rating, without => with the hydroxybenzoic acid derivative [3]: NSE

O=C(O)c1ccc(OCCCCO)cc1O [compound 40]
Sucrose sweetness rating, without => with the hydroxybenzoic acid derivative [1]: NSE | Fructose sweetness rating, without => with the hydroxybenzoic acid derivative [2]: NSE | Glucose sweetness rating, without => with the hydroxybenzoic acid derivative [3]: NSE

NC(=O)COc1ccc(C(=O)O)c(O)c1 [compound 41]
Sucrose sweetness rating, without => with the hydroxybenzoic acid derivative [1]: NSE | Fructose sweetness rating, without => with the hydroxybenzoic acid derivative [2]: NSE | Glucose sweetness rating, without => with the hydroxybenzoic acid derivative [3]: NSE

rebaudioside A [Form 1]
Rate of dissolution in H2O at 25° C. ([4]; in 60 minutes): Very low (<0.2%

rebaudioside A [Form 2]
Rate of dissolution in H2O at 25° C. ([4]; in 5 minutes): Intermediate (<30%

rebaudioside A [Form 3]
Rate of dissolution in H2O at 25° C. ([4]; in 5 minutes): High (>30%

rebaudioside A [Form 4]
Rate of dissolution in H2O at 25° C. ([4]; in 5 minutes): High (>35.0%
